Test results as given in patent US11440913B2, “Aminoimidazopyridazines as kinase inhibitors” (BRISTOL-MYERS SQUIBB COMPANY, priority 2017, dated 2022).
pIC50: −log10 of the molar value. Where a name gives a salt, the structure may show the parent alone. Read-outs that look alike come from different tables or passages of the source.

Experiments:
[1] = biological target: His-GST-TVMV-hRIPK1(1-324) (Homo sapiens (Human), UniProt Q13546); assay: RIPK1 HTRF Binding Assay; settings: HTRF binding, 1 h at rt; read-out: RIPK1 (IC50)
His-GST-TVMV-hRIPK1(1-324), sequence (Q13546 1-324): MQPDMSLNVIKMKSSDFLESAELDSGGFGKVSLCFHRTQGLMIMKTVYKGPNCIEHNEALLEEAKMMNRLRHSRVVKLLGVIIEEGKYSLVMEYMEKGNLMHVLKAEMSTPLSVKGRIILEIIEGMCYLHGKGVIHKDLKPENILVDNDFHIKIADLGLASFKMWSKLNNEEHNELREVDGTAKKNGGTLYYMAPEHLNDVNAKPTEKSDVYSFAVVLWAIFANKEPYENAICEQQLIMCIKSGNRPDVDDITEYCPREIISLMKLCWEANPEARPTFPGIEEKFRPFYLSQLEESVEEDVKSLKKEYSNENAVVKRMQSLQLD
In short: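 HTRF probe-displacement binding: 1 nM His-GST-TVMV-hRIPK1(1-324) (baculovirus construct), 90.6 nM probe, 0.2 nM anti-GST-Tb in 20 mM HEPES, 10 mM MgCl2, 0.015% Brij-35, 4 mM DTT, 0.05 mg/mL BSA. Incubated 1 h at rt; FRET 520/495 nm ratio, inhibition relative to DMSO-only wells.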

[2] = system: MLKL phosphorylation in HT29-L23 human colorectal adenocarcinoma cells; assay: MLKL Phosphorylation High-Content Assay; format: cell-based; settings: 6 h, necroptosis induced with TNFα, SMAC mimetic and Z-VAD, read-out: pMLKL (IC50)
In short: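 HT29-L23 cells pretreated 30 min at 37 °C with compound (6.25 to 0.106 μM final), then necroptosis induced with TNFα 35 ng/mL, SMAC mimetic 700 nM and Z-VAD 140 nM for 6 h. Fixed cells immunostained for MLKL pS358 and imaged; IC50 and Ymax from 4-parameter logistic fit.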

| Molecule | pIC50 [1] | pIC50 ([2]; Homo sapiens) | pIC50 [2] |
| --- | --- | --- | --- |
| COc1nc(C)c(-c2ccc3nc(NC(C)=O)cn3n2)cc1C(=O)NCc1ccccc1OCC1CCC(F)(F)CC1 [Example 310, N-({2-[(4,4-difluorocyclohexyl)methoxy]phenyl}methyl)-5-{2-acetamidoimidazo[1,2-b]pyridazin-6-yl}-2-methoxy-6-methylpyridine-3-carboxamide] | 7.68 | 6.90 | – |
| COc1ncc(-c2ccc3nc(NC(C)=O)cn3n2)cc1C(=O)NCc1ccc(F)cc1OC1CCOCC1 [Example 152, 5-{2-acetamidoimidazo[1,2-b]pyridazin-6-yl}-N-{[4-fluoro-2-(oxan-4-yloxy)phenyl]methyl}-2-methoxypyridine-3-carboxamide] | 7.31 | 7.16 | – |
| N-[(1R)-1-[2-fluoro-5- (trifluoromethyl)- phenyl]ethyl]-2- methyl-5-(2-{2-[4- (trifluoromethyl)piperidin-1- yl]acetamido}imidazo[1,2- b]pyridazin-6-yl)pyridine-3- carboxamide [Example 331] | 7.38 | – | 7.17 |
| CC(=O)Nc1cn2nc(-c3cc(C(=O)NCc4cc(C(F)(F)F)cc(Cl)c4F)c(C)cc3C)ccc2n1 [Example 384, N-{[3-chloro-2-fluoro-5-(trifluoromethyl)phenyl]methyl}-5-{2-acetamidoimidazo [1,2-b]pyridazin-6-yl}-2,4-dimethylbenzamide] | 7.32 | 7.00 | – |
| COc1ncc(-c2ccc3nc(NC(C)=O)cn3n2)cc1C(=O)NCc1ccccc1OC(F)(F)F [Example 157, 5-{2-acetamidoimidazo[1,2-b]pyridazin-6-yl}-2-methoxy-N-{[2-(trifluoro-methoxy)phenyl]methyl}pyridine-3-carboxamide] | 7.77 | 7.03 | – |
| CC(=O)Nc1cn2nc(-c3ccc(C(F)(F)F)c(C(=O)NCc4cc(C(F)(F)F)ccc4F)c3)ccc2n1 [Example 385, 5-{2-acetamidoimidazo [1,2-b]pyridazin-6-yl}-N-{[2-fluoro-5-(trifluoromethyl)phenyl]methyl}-2-(trifluoromethyl) benzamide] | 7.24 | 6.72 | – |
| CC(=O)Nc1cn2nc(-c3cnc(C)c(C(=O)NCc4ccccc4OC4CCOC4)c3)ccc2n1 (stereo not shown) [Example 224, 5-{2-acetamidoimidazo[1,2-b]pyridazin-6-yl}-2-methyl-N-{[2-(oxolan-3-yloxy)phenyl]methyl}pyridine-3-carboxamide] | 6.80 | 6.48 | – |
| COc1ncc(-c2ccc3nc(NC(=O)C(C)C)cn3n2)cc1C(=O)NCc1cc(F)cc(F)c1OCC1CC1 [Example 5, N-{[2-(cyclopropylmethoxy)-3,5-difluorophenyl]methyl}-2-methoxy-5-[2-(2-methylpropanamido)imidazo[1,2-b]pyridazin-6-yl]pyridine-3-carboxamide] | 8.15 | 7.96 | – |
| COCC(=O)Nc1cn2nc(-c3cnc(OC)c(C(=O)NCc4cc(F)cc(F)c4OCC4CC4)c3)ccc2n1 [Example 261, N-{[2-(cyclopropylmethoxy)-3,5-difluorophenyl]methyl}-2-methoxy-5-[2-(2-methoxyacetamido)imidazo[1,2-b]pyridazin-6-yl]pyridine-3-carboxamide, TFA] | 8.15 | – | 8.10 |
| COc1ncc(-c2ccc3nc(NC(C)=O)cn3n2)cc1C(=O)NCc1cc(OCC2CC2)ccc1F [Example 149, N-{[5-(cyclopropylmethoxy)-2-fluorophenyl]methyl}-5-{2-acetamidoimidazo[1,2-b]pyridazin-6-yl}-2-methoxypyridine-3-carboxamide] | 7.80 | 7.13 | – |
| COc1nc(C)c(-c2ccc3nc(NC(C)=O)cn3n2)cc1C(=O)NCC[C@H](O)c1ccc(Cl)cc1 [Example 301, N-[(3S)-3-(4-chlorophenyl)-3-hydroxypropyl]-5-{2-acetamidoimidazo[1,2-b]pyridazin-6-yl}-2-methoxy-6-methylpyridine-3-carboxamide] | 7.60 | 7.66 | – |
